Values joined by “and” are separate entries in the source; they are usually repeats but may differ in a detail not shown here. Equal values may be shown once. Toxic doses and inconclusive results are not listed. The calls were made as follows: active = survival T/C of 150% or more; inactive = T/C below 125% in these data.
Test system: CD2F1 mice, L1210 leukemia ip, survival T/C
Test: NCI In Vivo Anticancer Drug Screen. Data for tumor model L1210 Leukemia (intraperitoneal) in CD2F1 (CDF1) mice
Conditions: higher = longer survival
Method in brief: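 Tumor-bearing mice (transplanted tumor) were split into treated and vehicle control groups, and the measured endpoint of each treated group was divided by that of its vehicle controls.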

[1] = endpoint: mean survival time, dose: 75.0 mg/kg/injection, schedule: Q01DX001 (ip), vehicle: saline
[2] = endpoint: mean survival time, dose: 150.0 mg/kg/injection, schedule: Q01DX001 (ip), vehicle: saline
[3] = endpoint: mean survival time, dose: 25.0 mg/kg/injection, schedule: Q04DX003 (ip), vehicle: saline with Tween-80
[4] = endpoint: mean survival time, dose: 100.0 mg/kg/injection, schedule: Q01DX001 (ip), vehicle: saline with Tween-80
[5] = endpoint: mean survival time, dose: 100.0 mg/kg/injection, schedule: Q04DX002 (ip), vehicle: saline with Tween-80
[6] = endpoint: mean survival time, dose: 100.0 mg/kg/injection, schedule: Q04DX003 (ip), vehicle: saline with Tween-80
[7] = endpoint: mean survival time, dose: 200.0 mg/kg/injection, schedule: Q01DX001 (ip), vehicle: saline with Tween-80
[8] = endpoint: mean survival time, dose: 200.0 mg/kg/injection, schedule: Q04DX003 (ip), vehicle: saline with Tween-80
[9] = endpoint: mean survival time, dose: 400.0 mg/kg/injection, schedule: Q01DX001 (ip), vehicle: saline with Tween-80
[10] = endpoint: mean survival time, dose: 400.0 mg/kg/injection, schedule: Q04DX003 (ip), vehicle: saline with Tween-80
[11] = endpoint: mean survival time, dose: 100.0 mg/kg/injection, schedule: Q01DX009 (ip), vehicle: saline with Tween-80
[12] = endpoint: mean survival time, dose: 200.0 mg/kg/injection, schedule: Q01DX009 (ip), vehicle: saline with Tween-80
[13] = endpoint: mean survival time, dose: 400.0 mg/kg/injection, schedule: Q01DX009 (ip), vehicle: saline with Tween-80
[14] = endpoint: mean survival time, dose: 100.0 mg/kg/injection, schedule: Q01DX009 (ip), vehicle: saline

Measured: T/C

CN(Cc1ccccc1)N=Nc1ccccc1
inactive: endpoint: mean survival time, dose: 18.75 mg/kg/injection, schedule: Q01DX009 (ip), vehicle: Klucel (hydroxypropylcellulose) (HPC) 103 % of control | endpoint: mean survival time, dose: 37.5 mg/kg/injection, schedule: Q01DX009 (ip), vehicle: Klucel (hydroxypropylcellulose) (HPC) 107 % of control | [1] 108 % of control | endpoint: mean survival time, dose: 75.0 mg/kg/injection, schedule: Q01DX009 (ip), vehicle: Klucel (hydroxypropylcellulose) (HPC) 113 % of control | [2] 108 % of control | endpoint: mean survival time, dose: 150.0 mg/kg/injection, schedule: Q01DX009 (ip), vehicle: Klucel (hydroxypropylcellulose) (HPC) 119 % of control | endpoint: mean survival time, dose: 300.0 mg/kg/injection, schedule: Q01DX001 (ip), vehicle: saline 111 % of control

NC(=S)N/N=C/c1ccc(F)cn1
inactive: endpoint: mean survival time, dose: 11.0 mg/kg/injection, schedule: Q04DX003 (ip), vehicle: saline with Tween-80 105 % of control | endpoint: mean survival time, dose: 12.5 mg/kg/injection, schedule: Q04DX002 (ip), vehicle: saline with Tween-80 118 % of control | endpoint: mean survival time, dose: 16.5 mg/kg/injection, schedule: Q04DX003 (ip), vehicle: saline with Tween-80 110 % of control | [3] 110 % of control

S=c1nc[nH]c2ccccc12
inactive: [4] 93 % of control | [5] 91 % of control and 105 % of control | [6] 95 % of control and 97 % of control | [7] 94 % of control | endpoint: mean survival time, dose: 200.0 mg/kg/injection, schedule: Q04DX002 (ip), vehicle: saline with Tween-80 94 % of control and 102 % of control | [8] 86 % of control and 90 % of control | [9] 88 % of control | endpoint: mean survival time, dose: 400.0 mg/kg/injection, schedule: Q04DX002 (ip), vehicle: saline with Tween-80 91 % of control and 98 % of control

[Br][Sn]([Br])([c]1cccc2ccccc12)[c]1cccc2ccccc12
inactive: [6] 105 % of control | [8] 109 % of control | [10] 97 % of control

NC(=O)c1ncc(-c2ccc(Cl)cc2)[nH]c1=O
inactive: endpoint: mean survival time, dose: 100.0 mg/kg/injection, schedule: Q04DX003 (ip), vehicle: saline sonified 94 % of control | endpoint: mean survival time, dose: 200.0 mg/kg/injection, schedule: Q04DX003 (ip), vehicle: saline sonified 93 % of control | endpoint: mean survival time, dose: 400.0 mg/kg/injection, schedule: Q04DX003 (ip), vehicle: saline sonified 96 % of control

COC(=O)C#CC(c1ccccc1)(c1ccccc1)c1ccccc1
inactive: [11] 103 % of control | [12] 101 % of control | [13] 109 % of control

[NH-]C1CCCCC1[NH-].[NH-]C1CCCCC1[NH-].[Ni] (stereo not given)
inactive: [5] 110 % of control

CC12CCC3c4ccc(O)cc4CCC3C1CCC2S (stereo not given)
inactive: [6] 88 % of control | [8] 92 % of control

CCC(C)NC(=O)C1C2CCC(C2)C1C(=O)NC(C)CC (stereo not given)
inactive: [6] 98 % of control | [8] 98 % of control | [10] 102 % of control

CC1(C)COC(c2ccc(-c3ccc(C4=NC(C)(C)CO4)cc3)cc2)=N1
inactive: [4] 105 % of control | [7] 100 % of control | [9] 100 % of control

C[CH2][Sn]([I])([CH2]C)[CH2]C
inactive: endpoint: mean survival time, dose: 6.25 mg/kg/injection, schedule: Q01DX009 (ip), vehicle: saline with Tween-80 89 % of control

O=Cc1cc(=O)n2c3c(cccc13)CCC2
inactive: endpoint: mean survival time, dose: 100.0 mg/kg/injection, schedule: Q04DX003 (ip), vehicle: saline 98 % of control | endpoint: mean survival time, dose: 200.0 mg/kg/injection, schedule: Q04DX003 (ip), vehicle: saline 98 % of control

O=[As](O)(CC(O)COc1ccccc1)c1cccc(Cl)c1 (stereo not given)
inactive: endpoint: mean survival time, dose: 6.25 mg/kg/injection, schedule: Q04DX003 (ip), vehicle: saline with Tween-80 103 % of control | endpoint: mean survival time, dose: 12.5 mg/kg/injection, schedule: Q04DX003 (ip), vehicle: saline with Tween-80 107 % of control | [3] 100 % of control

COc1cc2c(cc1OC)-c1ccc3cc4c(cc3c1N(C)C2)OCO4
inactive: endpoint: mean survival time, dose: 5.0 mg/kg/injection, schedule: Q01DX009 (ip), vehicle: water 106 % of control | endpoint: mean survival time, dose: 10.0 mg/kg/injection, schedule: Q01DX009 (ip), vehicle: water 105 % of control | endpoint: mean survival time, dose: 20.0 mg/kg/injection, schedule: Q01DX009 (ip), vehicle: water 105 % of control | endpoint: mean survival time, dose: 40.0 mg/kg/injection, schedule: Q01DX009 (ip), vehicle: water 108 % of control | endpoint: mean survival time, dose: 80.0 mg/kg/injection, schedule: Q01DX009 (ip), vehicle: water 103 % of control

O=S(=O)(C1CCCCC1)N1N=NC2CCCCC21 (stereo not given)
inactive: [6] 100 % of control | [8] 102 % of control

Cc1ccc(S(=O)(=O)N(CCCc2c(C)nc(N)nc2Nc2ccccc2)c2ccccc2)cc1
inactive: [4] 92 % of control

CC1(CO)C2C=CC(C2)C1(C)CO (stereo not given)
inactive: [1] 105 % of control | [2] 105 % of control

Cn1c(CC(O)(C(F)(F)F)C(F)(F)F)cc(=O)n1-c1ccccc1
inactive: [6] 95 % of control | [8] 94 % of control

COc1ccc(C=C(C(=O)CCN(C)C)C(=O)CCN(C)C)cc1
inactive: endpoint: median survival time, dose: 25.0 mg/kg/injection, schedule: Q01DX005 (ip), vehicle: saline 100 % of control | endpoint: median survival time, dose: 50.0 mg/kg/injection, schedule: Q01DX005 (ip), vehicle: saline 100 % of control | endpoint: median survival time, dose: 100.0 mg/kg/injection, schedule: Q01DX005 (ip), vehicle: saline 100 % of control | endpoint: median survival time, dose: 200.0 mg/kg/injection, schedule: Q01DX005 (ip), vehicle: saline 102 % of control

CCOC(=S)SCCCC(C)CC (stereo not given)
inactive: endpoint: mean survival time, dose: 100.0 mg/kg/injection, schedule: Q01DX001 (ip), vehicle: saline 100 % of control | endpoint: mean survival time, dose: 200.0 mg/kg/injection, schedule: Q01DX001 (ip), vehicle: saline 102 % of control | endpoint: mean survival time, dose: 400.0 mg/kg/injection, schedule: Q01DX001 (ip), vehicle: saline 102 % of control

Cc1ccc(Cl)cc1NS(=O)(=O)c1cccc([N+](=O)[O-])c1
inactive: [6] 98 % of control | [8] 106 % of control | [10] 88 % of control

Nc1ccc(S(=O)(=O)N(CCO)CCO)cc1[N+](=O)[O-]
inactive: [6] 96 % of control | [8] 98 % of control | [10] 95 % of control

CCOC(=O)Nc1ccccc1[N+](=O)[O-]
inactive: endpoint: mean survival time, dose: 100.0 mg/kg/injection, schedule: Q04DX003 (ip), vehicle: other 98 % of control | endpoint: mean survival time, dose: 200.0 mg/kg/injection, schedule: Q04DX003 (ip), vehicle: other 102 % of control | endpoint: mean survival time, dose: 400.0 mg/kg/injection, schedule: Q04DX003 (ip), vehicle: other 98 % of control

Cc1cn(C2CC(O)C(CO)O2)c(=O)nc1NCc1ccco1 (stereo not given)
inactive: endpoint: median survival time, dose: 12.5 mg/kg/injection, schedule: Q01DX005 (ip), vehicle: water 103 % of control | endpoint: median survival time, dose: 25.0 mg/kg/injection, schedule: Q01DX005 (ip), vehicle: water 103 % of control | endpoint: median survival time, dose: 50.0 mg/kg/injection, schedule: Q01DX005 (ip), vehicle: water 104 % of control | endpoint: median survival time, dose: 100.0 mg/kg/injection, schedule: Q01DX005 (ip), vehicle: water 105 % of control | endpoint: median survival time, dose: 200.0 mg/kg/injection, schedule: Q01DX005 (ip), vehicle: water 102 % of control

CCOC(=O)C(C)C(=O)NCc1ccccc1 (stereo not given)
inactive: endpoint: mean survival time, dose: 25.0 mg/kg/injection, schedule: Q01DX009 (ip), vehicle: Klucel (hydroxypropylcellulose) (HPC) 95 % of control | endpoint: mean survival time, dose: 50.0 mg/kg/injection, schedule: Q01DX009 (ip), vehicle: Klucel (hydroxypropylcellulose) (HPC) 96 % of control | endpoint: mean survival time, dose: 100.0 mg/kg/injection, schedule: Q01DX009 (ip), vehicle: Klucel (hydroxypropylcellulose) (HPC) 96 % of control | endpoint: mean survival time, dose: 200.0 mg/kg/injection, schedule: Q01DX009 (ip), vehicle: Klucel (hydroxypropylcellulose) (HPC) 93 % of control | endpoint: mean survival time, dose: 400.0 mg/kg/injection, schedule: Q01DX009 (ip), vehicle: Klucel (hydroxypropylcellulose) (HPC) 98 % of control

c1cc(N2CCCC2)cc(N2CCCC2)c1
inactive: [11] 96 % of control | [6] 102 % of control | [12] 88 % of control | [8] 106 % of control | [13] 88 % of control | [10] 98 % of control

O=C(O)c1ccccc1-c1ccccc1C(=O)Nc1ccc2c(c1)Cc1ccccc1-2
inactive: endpoint: mean survival time, dose: 62.5 mg/kg/injection, schedule: Q04DX003 (ip), vehicle: saline with Tween-80 101 % of control | endpoint: mean survival time, dose: 125.0 mg/kg/injection, schedule: Q04DX003 (ip), vehicle: saline with Tween-80 98 % of control | endpoint: mean survival time, dose: 250.0 mg/kg/injection, schedule: Q04DX003 (ip), vehicle: saline with Tween-80 98 % of control

CCCN(CCC)CN(CCC)CCC
inactive: endpoint: mean survival time, dose: 50.0 mg/kg/injection, schedule: Q01DX009 (ip), vehicle: saline 98 % of control | [14] 105 % of control

CC(=O)OC(CC(=O)CC(OC(C)=O)(C(F)(F)F)C(F)(F)F)(C(F)(F)F)C(F)(F)F
inactive: [14] 100 % of control | endpoint: mean survival time, dose: 200.0 mg/kg/injection, schedule: Q01DX009 (ip), vehicle: saline 97 % of control | endpoint: mean survival time, dose: 400.0 mg/kg/injection, schedule: Q01DX009 (ip), vehicle: saline 103 % of control

Reference: PubChem BioAssay AID256 (DTP/NCI, 2004)
